Assay results reported in ChEMBL document CHEMBL5584296, “Discovery of Novel Pyrimidine-Based Derivatives as Nav1.2 Inhibitors with Efficacy in Mouse Models of Epilepsy” (J Med Chem, 2024).

Key:
[1] = molecular target: T1, Sodium channel protein type 2 subunit alpha (Homo sapiens, UniProt Q99250); test: Inhibition of human Nav1.2 expressed in HEK293 cells assessed as test to control ratio at 0.1 uM measured after 5 mins by whole cell voltage clamp electrophysiological analysis; type: cell-based
Target sequence in this assay (Q99250 whole entry, looked up): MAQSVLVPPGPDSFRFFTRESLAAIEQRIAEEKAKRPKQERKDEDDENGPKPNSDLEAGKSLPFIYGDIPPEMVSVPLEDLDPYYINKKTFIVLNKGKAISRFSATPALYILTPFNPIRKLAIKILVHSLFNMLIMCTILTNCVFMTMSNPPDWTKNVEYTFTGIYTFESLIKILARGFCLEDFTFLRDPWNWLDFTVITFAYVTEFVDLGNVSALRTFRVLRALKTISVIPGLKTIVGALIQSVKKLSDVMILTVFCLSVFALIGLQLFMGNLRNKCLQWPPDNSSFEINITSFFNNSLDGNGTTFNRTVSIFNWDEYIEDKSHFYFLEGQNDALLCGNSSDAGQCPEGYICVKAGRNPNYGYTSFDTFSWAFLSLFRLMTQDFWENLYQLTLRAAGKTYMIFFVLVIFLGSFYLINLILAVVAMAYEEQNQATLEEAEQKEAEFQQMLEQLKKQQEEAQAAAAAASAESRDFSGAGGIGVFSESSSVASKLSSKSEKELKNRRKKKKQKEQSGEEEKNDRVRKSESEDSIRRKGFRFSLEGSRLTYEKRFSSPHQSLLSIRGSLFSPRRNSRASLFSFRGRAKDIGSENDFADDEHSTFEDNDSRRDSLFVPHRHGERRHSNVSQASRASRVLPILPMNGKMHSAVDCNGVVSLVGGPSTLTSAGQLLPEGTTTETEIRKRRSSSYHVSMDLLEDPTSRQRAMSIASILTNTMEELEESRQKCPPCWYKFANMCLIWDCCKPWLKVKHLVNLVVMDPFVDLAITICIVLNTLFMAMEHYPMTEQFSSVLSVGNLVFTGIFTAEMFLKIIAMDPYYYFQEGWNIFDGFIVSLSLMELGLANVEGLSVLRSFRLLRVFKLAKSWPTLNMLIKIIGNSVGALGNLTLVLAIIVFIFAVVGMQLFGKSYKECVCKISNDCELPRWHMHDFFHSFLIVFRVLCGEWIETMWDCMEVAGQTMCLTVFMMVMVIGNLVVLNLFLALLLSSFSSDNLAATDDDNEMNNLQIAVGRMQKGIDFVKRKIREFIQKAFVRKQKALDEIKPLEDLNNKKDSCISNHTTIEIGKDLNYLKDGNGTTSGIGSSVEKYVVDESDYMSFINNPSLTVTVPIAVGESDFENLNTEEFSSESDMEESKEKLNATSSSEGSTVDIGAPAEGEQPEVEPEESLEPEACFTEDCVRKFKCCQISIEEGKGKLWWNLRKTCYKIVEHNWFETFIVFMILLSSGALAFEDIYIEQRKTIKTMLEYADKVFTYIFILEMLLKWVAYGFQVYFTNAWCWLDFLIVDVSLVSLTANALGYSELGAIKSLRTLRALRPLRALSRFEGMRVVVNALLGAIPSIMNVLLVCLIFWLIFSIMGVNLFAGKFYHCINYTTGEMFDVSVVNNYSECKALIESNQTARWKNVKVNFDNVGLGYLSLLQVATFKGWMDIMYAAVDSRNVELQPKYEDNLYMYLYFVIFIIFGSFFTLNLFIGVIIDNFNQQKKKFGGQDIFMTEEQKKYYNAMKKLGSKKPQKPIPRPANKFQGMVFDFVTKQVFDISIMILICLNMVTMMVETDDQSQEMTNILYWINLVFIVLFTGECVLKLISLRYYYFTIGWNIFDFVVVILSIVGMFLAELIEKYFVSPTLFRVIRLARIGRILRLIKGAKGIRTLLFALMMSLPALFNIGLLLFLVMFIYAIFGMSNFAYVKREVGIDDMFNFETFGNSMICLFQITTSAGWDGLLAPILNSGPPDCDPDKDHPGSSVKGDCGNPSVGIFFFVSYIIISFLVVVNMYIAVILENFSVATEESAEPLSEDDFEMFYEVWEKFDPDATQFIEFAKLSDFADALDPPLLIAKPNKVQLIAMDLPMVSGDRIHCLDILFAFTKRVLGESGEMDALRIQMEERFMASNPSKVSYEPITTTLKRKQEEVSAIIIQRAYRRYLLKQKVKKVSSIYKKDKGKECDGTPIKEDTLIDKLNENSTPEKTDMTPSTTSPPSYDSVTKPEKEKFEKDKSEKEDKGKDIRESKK

[2] = molecular target: T1, Sodium channel protein type 2 subunit alpha; test: Inhibition of human Nav1.2 expressed in HEK293 cells assessed as test to control ratio at 1 uM measured after 5 mins by whole cell voltage clamp electrophysiological analysis; type: cell-based
Target sequence in this assay (Q99250 whole entry, looked up): as above

[3] = molecular target: T1, Sodium channel protein type 2 subunit alpha; test: Inhibition of human Nav1.2 expressed in HEK293 cells assessed as test to control ratio at 10 uM measured after 5 mins by whole cell voltage clamp electrophysiological analysis; type: cell-based
Target sequence in this assay (Q99250 whole entry, looked up): as above

[4] = molecular target: T1, Sodium channel protein type 2 subunit alpha; test: Inhibition of human Nav1.2 expressed in HEK293 cells at 10 uM measured after 5 mins by whole cell voltage clamp electrophysiological analysis relative to control; type: cell-based
Target sequence in this assay (Q99250 whole entry, looked up): as above

[5] = molecular target: T1, Sodium channel protein type 2 subunit alpha; test: Inhibition of Nav1.2 (unknown origin)
Target sequence in this assay (Q99250 whole entry): as the sequence (Q99250 whole entry, looked up) above

[6] = molecular target: T1, Sodium channel protein type 2 subunit alpha; test: Inhibition of Nav1.2 (unknown origin) at 100 uM relative to control
Target sequence in this assay (Q99250 whole entry, looked up): as above

[7] = Neurotoxicity in male ICR mouse administered intraperitoneally for 30 mins; type: toxicity; conditions: in vivo, route ip
[8] = molecular target: T1, Sodium channel protein type 2 subunit alpha; test: Inhibition of human Nav1.2 expressed in HEK293 cells at -120 mv holding potential measured after 5 mins by whole cell voltage clamp electrophysiological analysis; type: cell-based
Target sequence in this assay (Q99250 whole entry): as the sequence (Q99250 whole entry, looked up) above

[9] = Neurotoxicity in male ICR mouse assessed as motor impairment at 150 mg/kg, ip administered for 30 mins by rotarod test relative to control; type: toxicity, organism-based; conditions: in vivo, 0.5 h
[10] = molecular target: Sodium channel protein type 8 subunit alpha (Homo sapiens) (UniProt Q9UQD0); test: Inhibition of human Nav1.6 expressed in CHO cells assessed as test to control ratio at 0.1 uM by whole cell voltage clamp electrophysiological analysis; type: cell-based
[11] = molecular target: Sodium channel protein type 1 subunit alpha (Homo sapiens) (UniProt P35498); test: Inhibition of human Nav1.1 expressed in HEK293 cells assessed as test to control ratio at 1 uM by whole cell voltage clamp electrophysiological analysis; type: cell-based
Mus musculus [12] = test: Antiepileptic activity in 6 Hz(32 mA)-induced seizure male C57BL mouse model assessed as protection against seizure at 10 mg/kg, ip administered for 30 mins by epilepsy test; type: functional; conditions: 0.5 h
[13] = Neurotoxicity in male ICR mouse assessed as motor impairment at 300 mg/kg, ip administered for 30 mins by rotarod test relative to control; type: toxicity, organism-based; conditions: in vivo, 0.5 h
[14] = Neurotoxicity in male ICR mouse assessed as motor impairment at 250 mg/kg, ip administered for 30 mins by rotarod test relative to control; type: toxicity, organism-based; conditions: in vivo, 0.5 h
Mus musculus [15] = test: Antiepileptic activity in MES-induced seizure male ICR mouse model assessed as protection against tonic hind limb extension at 30 mg/kg, ip measured after 30 mins relative to control; type: functional; conditions: 0.5 h
[16] = molecular target: Sodium channel protein type 1 subunit alpha (Homo sapiens) (UniProt P35498); test: Inhibition of human Nav1.1 expressed in HEK293 cells assessed as test to control ratio at 0.1 uM by whole cell voltage clamp electrophysiological analysis; type: cell-based
[17] = molecular target: Sodium channel protein type 8 subunit alpha (Homo sapiens) (UniProt Q9UQD0); test: Inhibition of human Nav1.6 expressed in CHO cells assessed as test to control ratio at 1 uM by whole cell voltage clamp electrophysiological analysis; type: cell-based
Mus musculus [18] = test: Antiepileptic activity in 6 Hz(32 mA)-induced seizure male C57BL mouse model administered intraperitoneally for 30 mins by epilepsy test; type: functional; conditions: 0.5 h, route ip
Mus musculus [19] = test: Antiepileptic activity in 6 Hz(32 mA)-induced seizure male C57BL mouse model assessed as protection against seizure at 50 mg/kg, ip administered for 30 mins by epilepsy test; type: functional; conditions: 0.5 h
[20] = molecular target: T1, Sodium channel protein type 2 subunit alpha; test: Inhibition of human Nav1.2 expressed in HEK293 cells assessed as effect on steady state inactivation by measuring half activation potential at 20 uM (reference value: -59 mV); type: cell-based
Target sequence in this assay (Q99250 whole entry, looked up): as above

[21] = molecular target: T1, Sodium channel protein type 2 subunit alpha; test: Inhibition of human Nav1.2 expressed in HEK293 cells at -40 mv holding potential measured after 5 mins by whole cell voltage clamp electrophysiological analysis; type: cell-based
Target sequence in this assay (Q99250 whole entry): as the sequence (Q99250 whole entry, looked up) above

Mus musculus [22] = test: Antiepileptic activity in MES-induced seizure male ICR mouse model assessed as protection against tonic hind limb extension at 10 mg/kg, ip measured after 30 mins relative to control; type: functional; conditions: 0.5 h
[23] = molecular target: T2, Sodium channel protein type 5 subunit alpha (Homo sapiens, UniProt Q14524); test: Inhibition of human Nav1.5 expressed in CHL cells assessed as test to control ratio at 0.1 uM by whole cell voltage clamp electrophysiological analysis; type: cell-based
Mus musculus [24] = test: Antiepileptic activity in 6 Hz(32 mA)-induced seizure male C57BL mouse model assessed as protection against seizure at 30 mg/kg, ip administered for 30 mins by epilepsy test; type: functional; conditions: 0.5 h
Mus musculus [25] = test: Antiepileptic activity in MES-induced seizure male ICR mouse model assessed as protection against tonic hind limb extension at 20 mg/kg, ip measured after 30 mins relative to control; type: functional; conditions: 0.5 h
[26] = molecular target: T2, Sodium channel protein type 5 subunit alpha; test: Inhibition of human Nav1.5 expressed in CHL cells assessed as test to control ratio at 1 uM by whole cell voltage clamp electrophysiological analysis; type: cell-based
[27] = molecular target: T1, Sodium channel protein type 2 subunit alpha; test: Inhibition of human Nav1.2 expressed in HEK293 cells assessed as effect on steady state activation by measuring half activation potential at 20 uM (reference value: -37 mV); type: cell-based
Mus musculus [28] = test: Antiepileptic activity in MES-induced seizure male ICR mouse model assessed as protection against tonic hind limb extension administered intraperitoneally for 30 mins; type: functional; conditions: 0.5 h, route ip

Sodium channel protein type 8 subunit alpha (Homo sapiens), sequence (Q9UQD0 whole entry, looked up): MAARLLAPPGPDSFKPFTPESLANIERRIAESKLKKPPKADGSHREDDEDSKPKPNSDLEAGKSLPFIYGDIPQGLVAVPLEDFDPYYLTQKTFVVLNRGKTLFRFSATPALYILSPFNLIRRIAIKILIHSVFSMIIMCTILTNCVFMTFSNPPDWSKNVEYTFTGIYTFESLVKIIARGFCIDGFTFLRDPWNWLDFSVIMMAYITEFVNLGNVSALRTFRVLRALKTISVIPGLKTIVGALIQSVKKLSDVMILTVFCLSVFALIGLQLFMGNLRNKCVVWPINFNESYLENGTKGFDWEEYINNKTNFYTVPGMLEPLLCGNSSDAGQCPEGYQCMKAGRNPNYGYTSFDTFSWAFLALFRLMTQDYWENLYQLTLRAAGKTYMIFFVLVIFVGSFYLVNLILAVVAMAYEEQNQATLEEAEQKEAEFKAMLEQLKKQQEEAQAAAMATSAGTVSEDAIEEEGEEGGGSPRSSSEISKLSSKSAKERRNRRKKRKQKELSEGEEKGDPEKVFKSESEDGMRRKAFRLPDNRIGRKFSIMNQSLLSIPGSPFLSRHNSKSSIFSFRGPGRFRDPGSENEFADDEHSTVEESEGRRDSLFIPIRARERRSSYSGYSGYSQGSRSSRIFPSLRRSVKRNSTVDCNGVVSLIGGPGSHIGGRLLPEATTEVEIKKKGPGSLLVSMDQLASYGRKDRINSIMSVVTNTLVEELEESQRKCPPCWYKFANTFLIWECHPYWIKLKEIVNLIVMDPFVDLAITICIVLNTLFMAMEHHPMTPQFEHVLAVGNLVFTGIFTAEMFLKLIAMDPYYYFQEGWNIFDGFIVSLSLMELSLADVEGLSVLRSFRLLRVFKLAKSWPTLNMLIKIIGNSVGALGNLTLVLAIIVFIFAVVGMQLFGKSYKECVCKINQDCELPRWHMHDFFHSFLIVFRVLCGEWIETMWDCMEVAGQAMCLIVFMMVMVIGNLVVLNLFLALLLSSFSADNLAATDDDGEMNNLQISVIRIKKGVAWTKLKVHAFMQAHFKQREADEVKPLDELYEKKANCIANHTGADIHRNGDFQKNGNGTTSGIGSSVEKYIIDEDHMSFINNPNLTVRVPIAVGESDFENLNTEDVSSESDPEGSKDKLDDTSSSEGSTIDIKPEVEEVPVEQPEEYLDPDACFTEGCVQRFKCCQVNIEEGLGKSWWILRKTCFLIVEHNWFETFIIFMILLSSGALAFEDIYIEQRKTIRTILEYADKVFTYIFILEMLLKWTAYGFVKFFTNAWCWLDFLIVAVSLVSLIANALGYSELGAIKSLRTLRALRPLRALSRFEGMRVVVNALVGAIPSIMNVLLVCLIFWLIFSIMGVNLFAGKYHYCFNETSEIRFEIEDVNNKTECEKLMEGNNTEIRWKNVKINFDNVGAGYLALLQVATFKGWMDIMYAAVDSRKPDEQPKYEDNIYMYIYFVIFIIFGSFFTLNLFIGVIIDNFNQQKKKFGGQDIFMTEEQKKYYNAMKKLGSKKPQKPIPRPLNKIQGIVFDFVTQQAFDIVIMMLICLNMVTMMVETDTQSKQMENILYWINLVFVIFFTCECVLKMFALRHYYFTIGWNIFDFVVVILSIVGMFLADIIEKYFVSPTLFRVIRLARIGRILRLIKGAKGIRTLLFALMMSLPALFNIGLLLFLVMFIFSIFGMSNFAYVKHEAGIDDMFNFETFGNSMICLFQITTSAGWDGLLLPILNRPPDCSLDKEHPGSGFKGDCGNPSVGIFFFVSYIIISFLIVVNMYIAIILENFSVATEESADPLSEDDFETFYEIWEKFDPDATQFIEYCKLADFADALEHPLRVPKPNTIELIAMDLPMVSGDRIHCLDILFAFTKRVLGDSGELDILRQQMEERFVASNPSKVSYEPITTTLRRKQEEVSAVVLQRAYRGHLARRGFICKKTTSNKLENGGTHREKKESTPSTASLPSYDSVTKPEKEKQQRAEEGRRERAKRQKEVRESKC

Question: For Cc1cccc(-c2cc(N3CCCc4ccccc4C3)nc(N)n2)c1, which T/C [1] is on record?
Answer: The T/C was 0.85.

Question: What about the T/C [2] of the same compound?
Answer: Its T/C is 0.24.

Question: What about the T/C [3] of the same compound?
Answer: Its T/C is 0.03.

Question: With Nc1nc(-c2ccc(Oc3ccccc3)cc2)cc(N2CCCc3ccccc3C2)n1 as the compound, how does the T/C [2] read?
Answer: The T/C was 0.79.

Question: And the T/C [3]?
Answer: Its T/C is 0.46.

Question: What does the source list for COc1cccc(-c2cc(N3CCc4cc(OC)c(OC)cc4C3)nc(N)n2)c1?
Answer: T/C [1]: 0.67; T/C [2]: 0.35; T/C [3]: 0.01; inhibition [4]: 99%

Question: With COc1cccc(-c2cc(N3CC4CC(C3)c3ccccc34)nc(NS(=O)(=O)c3ccc(F)cc3)n2)c1 as the compound, how does the T/C [2] read?
Answer: Its T/C is 0.56.

Question: And the T/C [3]?
Answer: The T/C was 0.28.

Question: Which T/C [1] does the source give for Nc1nc(-c2ccc(F)cc2)cc(N2CCCc3ccccc3C2)n1 here?
Answer: Its T/C is 0.9.

Question: What about the T/C [2] of the same compound?
Answer: Its T/C is 0.46.

Question: And the T/C [3]?
Answer: The T/C was 0.18.

Question: Which results are given for COc1cccc(-c2cc(N3CCC4(CCOCC4)C3)nc(N)n2)c1?
Answer: T/C [1]: 0.97; T/C [2]: 0.94; T/C [3]: 0.57

Question: Which results are given for COc1cccc(-c2cc(N3CCC(C)c4ccccc4C3)nc(N)n2)c1 (stereo unspecified)?
Answer: T/C [1]: 0.95; T/C [2]: 0.12; T/C [3]: 0.11

Question: With COc1cccc(-c2cc(N3CCc4nc(Cl)ccc4C3)nc(N)n2)c1 as the compound, how does the T/C [1] read?
Answer: Its T/C is 0.89.

Question: What about the T/C [2] of the same compound?
Answer: The T/C was 0.71.

Question: And the T/C [3]?
Answer: The T/C was 0.18.

Question: For Nc1cnc(-c2cc(Cl)cc(Cl)c2Cl)c(N)n1 [ELPETRIGINE], which IC50 [5] is on record?
Answer: The IC50 was 6 µM.

Question: Which inhibition [6] does the source give for O=C(CC(c1ccccc1)c1ccccc1)N1CCN(CCO)CC1 here?
Answer: Its inhibition is 59.1%.

Question: Which TD50 at 0.5 h [7] does the source give for COc1cccc(-c2cc(N3CC4CC(C3)c3ccccc34)nc(N)n2)c1 here?
Answer: Its TD50 at 0.5 h is 232 mg/kg.

Question: What about the IC50 [8] of the same compound?
Answer: The IC50 was 21.5 µM.

Question: What about the Activity [9] of the same compound?
Answer: The Activity was 13%.

Question: And the T/C [10]?
Answer: The T/C was 0.51.

Question: What about the T/C [11] of the same compound?
Answer: Its T/C is 0.33.

Question: What about the T/C [1] of the same compound?
Answer: Its T/C is 0.87.

Question: And the Activity (Mus musculus [12])?
Answer: Its Activity is 13%.

Question: What about the Activity [13] of the same compound?
Answer: Its Activity is 88%.

Question: And the Activity [14]?
Answer: The Activity was 38%.

Question: What about the Activity (Mus musculus [15]) of the same compound?
Answer: Its Activity is 75%.

Question: What about the T/C [16] of the same compound?
Answer: Its T/C is 0.93.

Question: What about the T/C [17] of the same compound?
Answer: Its T/C is 0.1.

Question: And the ED50 (Mus musculus [18])?
Answer: The ED50 was 38 mg/kg.

Question: And the Activity (Mus musculus [19])?
Answer: The Activity was 63%.

Question: What about the V1/2 [20] of the same compound?
Answer: Its V1/2 is -70 mV.

Question: And the IC50 [21]?
Answer: The IC50 was 0.635 µM.

Question: What about the Activity (Mus musculus [22]) of the same compound?
Answer: Its Activity is 38%.

Question: And the T/C [2]?
Answer: Its T/C is 0.4.

Question: And the T/C [3]?
Answer: Its T/C is 0.02.

Question: And the T/C [23]?
Answer: The T/C was 0.89.

Question: What about the Activity (Mus musculus [24]) of the same compound?
Answer: The Activity was 38%.

Question: What about the Activity (Mus musculus [25]) of the same compound?
Answer: The Activity was 50%.

Question: And the T/C [26]?
Answer: Its T/C is 0.37.

Question: What about the V1/2 [27] of the same compound?
Answer: The V1/2 was -32 mV.

Question: And the ED50 (Mus musculus [28])?
Answer: Its ED50 is 15.8 mg/kg.

Question: For Cc1cccc(C)c1OCCCNCc1cc(C(C)(C)C)c(O)c(C(C)(C)C)c1, which IC50 [5] is on record?
Answer: The IC50 was 0.18 µM.

Question: With COc1cccc(-c2cc(N3CCCc4ccc(C)cc4C3)nc(SC)n2)c1 as the compound, how does the T/C [3] read?
Answer: Its T/C is 0.66.

Question: With COc1cccc(-c2cc(N3CCCc4ccccc4C3)nc(NS(=O)(=O)c3ccc(F)cc3)n2)c1 as the compound, how does the T/C [1] read?
Answer: Its T/C is 0.95.

Question: What about the T/C [2] of the same compound?
Answer: Its T/C is 0.95.

Question: And the T/C [3]?
Answer: The T/C was 0.36.

Question: With CCCc1ccc(S(=O)(=O)Nc2nc(-c3cccc(OC)c3)cc(N3CCCc4ccccc4C3)n2)cc1 as the compound, how does the T/C [1] read?
Answer: The T/C was 0.86.

Question: And the T/C [2]?
Answer: Its T/C is 0.12.

Question: And the T/C [3]?
Answer: Its T/C is 0.08.

Question: And the inhibition [4]?
Answer: Its inhibition is 92%.

Question: Which T/C [3] does the source give for COc1cccc(-c2cc(N3CCCc4ccc(C)cc4C3)nc(S(C)(=O)=O)n2)c1 here?
Answer: The T/C was 0.81.

Question: Which T/C [2] does the source give for COc1cccc(-c2cc(N3CCCc4cc(F)c(F)cc4C3)nc(N)n2)c1 here?
Answer: The T/C was 0.65.

Question: And the T/C [3]?
Answer: Its T/C is 0.43.

Question: With CN1C[C@H](CNC(=O)OCc2ccccc2)C[C@@H]2c3cccc4c3c(cn4C)C[C@H]21 as the compound, how does the T/C [3] read?
Answer: Its T/C is 0.01.

Question: With COc1cccc(-c2cc(N3CCCc4ccc(C)cc4C3)nc(C#N)n2)c1 as the compound, how does the T/C [3] read?
Answer: The T/C was 0.86.

Question: Which results are given for COc1cccc(-c2cc(N3CCc4ccccc4C3)nc(N)n2)c1?
Answer: T/C [1]: 0.68; T/C [2]: 0.35; T/C [3]: 0.13

Question: What does the source list for COc1cccc(-c2cc(N3CCCc4ccc(C)cc4C3)ncn2)c1?
Answer: T/C [1]: 0.8; T/C [2]: 0.43; T/C [3]: 0.13

Question: For COc1cccc(-c2cc(N3CCCc4ccc(C)cc4C3)nc(-c3ccccc3)n2)c1, which T/C [3] is on record?
Answer: The T/C was 0.91.
